Several values for one entry are separate records, joined by “and”; a condition that tells them apart may be missing. Identical values can stand only once. Like-named read-outs stand apart in the source and are kept apart here. No end group written: not given here. *: point of attachment. AMC = Cc1cc(=O)oc2cc(N*)ccc12
Tests used:
D. immitis L3 larvae = test: Larval culture assay, molting of L3 larvae counted by shed cuticles; assay type: cell-based, Dirofilaria immitis
Di-ADC [1] = test: Effect of inhibitors on cleavage of H-Phe-AMC by Di-ADC (D. immitis L3/L4 ES); assay type: biochemical, Dirofilaria immitis
Phe-DC [2] = test: Inhibitor assay with commercially prepared Phe-DC as enzyme source; assay type: biochemical
Tyr-DC = biological target: T1, Tyr-DC (Enterococcus faecalis, UniProt P0DTQ4); test: Inhibitor assay with commercially prepared Tyr-DC as enzyme source; assay type: biochemical
T1 sequence (P0DTQ4 1-620): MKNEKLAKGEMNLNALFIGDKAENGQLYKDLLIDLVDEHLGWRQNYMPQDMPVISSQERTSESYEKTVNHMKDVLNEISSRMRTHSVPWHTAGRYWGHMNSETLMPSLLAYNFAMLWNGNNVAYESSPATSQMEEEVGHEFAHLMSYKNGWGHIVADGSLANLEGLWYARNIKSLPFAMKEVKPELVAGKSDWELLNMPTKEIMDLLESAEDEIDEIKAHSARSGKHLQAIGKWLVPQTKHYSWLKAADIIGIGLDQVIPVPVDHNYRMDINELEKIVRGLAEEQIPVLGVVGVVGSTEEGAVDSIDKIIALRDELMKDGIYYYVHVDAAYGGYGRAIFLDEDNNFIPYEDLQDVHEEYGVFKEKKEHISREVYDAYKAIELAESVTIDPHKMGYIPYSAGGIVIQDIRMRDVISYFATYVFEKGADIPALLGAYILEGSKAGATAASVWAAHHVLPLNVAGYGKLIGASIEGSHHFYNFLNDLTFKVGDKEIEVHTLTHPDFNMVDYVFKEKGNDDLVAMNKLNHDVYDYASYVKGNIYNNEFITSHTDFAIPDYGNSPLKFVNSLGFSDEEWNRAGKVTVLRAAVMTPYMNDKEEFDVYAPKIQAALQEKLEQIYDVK

D. immitis L3/L4 ES = assay type: biochemical, Dirofilaria immitis; settings: pH 7.5
[3] = tested on: phenylalanine decarboxylase (Phe-DC); test: Substrate specificity assay on commercially prepared Phe-DC; assay type: biochemical; settings: as Example 1
Di-ADC [4] = test: Enzyme kinetics of Di-ADC with AMC substrates (fluorimetric assay); assay type: biochemical, Dirofilaria immitis; settings: substrate 0.0016 to 0.2 mM, double-reciprocal plot
[5] = biological target: T2, tyrosine decarboxylase (Tyr-DC) (Enterococcus faecalis, UniProt P0DTQ4); test: Substrate specificity assay on commercially prepared Tyr-DC; assay type: biochemical; settings: as Example 1
T2 sequence (P0DTQ4 1-620): T1 sequence (P0DTQ4 1-620)

Phe-DC [6] = test: Enzyme kinetics of Phe-DC with AMC substrates (fluorimetric assay); assay type: biochemical; settings: substrate 0.0016 to 0.2 mM, double-reciprocal plot
Method: E. Enzyme kinetics, as measured by Michaelis constant (Km) and maximal velocity (Vmax), can be used to characterize the activity of an enzyme towards a given substrate under defined conditions. Enzymatic reactions were performed under the fluorimetric assay conditions described in Example 1 using Di-ADC and commercially prepared Phe-DC as the enzymes and H-Phe-AMC, H-Tyr-AMC and H-Trp-AMC as the substrates. One μL of purified adult Di-ADC, prepared as described in Example 2 through the gel filtration chromatography step, or 80 micro units (μU) (11.4 μg) of Phe-DC were incubated with each substrate at substrate concentrations ranging from 0.0016 to 0.2 mM. Each reaction was carried out in duplicate in PBS reaction buffer and monitored using the fluorimetric method described in Example 1. The values of apparent Km and Vm, of Di-ADC and Phe-DC for the substrates H-Phe-AMC, H-Tyr-AMC and H-Trp-AMC were calculated from a double-reciprocal plot of 1/v against 1/[substrate].

Phe-DC [7] = test: Carbon dioxide release on decarboxylation of L-phenylalanine by Phe-DC (control reaction); assay type: biochemical; settings: 375 U Phe-DC
Di-ADC [8] = test: Carbon dioxide release on decarboxylation of L-phenylalanine by Di-ADC (INFINITY CO2 kit); assay type: biochemical, Dirofilaria immitis; settings: 5 mM L-phenylalanine, 37° C., 45 minutes
Phe-DC [9] = test: Formation of dopamine from dopa by Phe-DC; assay type: biochemical; settings: 172 μU Phe-DC, 0.5 mM L-dopa, 37° C., 30 minutes
Di-ADC [10] = test: Formation of dopamine from dopa by Di-ADC; assay type: biochemical, Dirofilaria immitis; settings: 10 μl Di-ADC, 0.5 mM L-dopa, 37° C., 30 minutes
[11] = compared with inhibition of Di-ADC

Molecule: O=c1oc(Cl)c(Cl)c2ccccc12 [3,4-DCI, 3,4-Dichioroisocoumarin]
- % Inhibition of molting of L3 larvae (D. immitis L3 larvae; 0.001 mM, 3 days culture): 28.6%
- % Inhibition of molting of L3 larvae (D. immitis L3 larvae; 0.01 mM, 3 days culture): 40.9%
- % Inhibition of molting of L3 larvae (D. immitis L3 larvae; 0.1 mM, 3 days culture): 100%
- inhibition of the molting process (in words) (D. immitis L3 larvae; final concentration of 0.1 mM): completely inhibited the molting process
- inhibition of Di-ADC activity relative to Phe-DC or Tyr-DC activity (Di-ADC [1]; comparison between enzymes): more strongly
- sensitivity of the enzyme activity (H-Phe-AMC cleavage) to inhibitor (Di-ADC [1]; inhibitor concentrations of Table II, pre-incubated 30 minutes at 37° C.): sensitive

Molecule: NCCc1c[nH]c2ccc(O)cc12 [5-HT, 5-hydroxytryptamine]
- inhibition of Phe-DC activity (Phe-DC [2]; [11]): at levels similar to the level that each inhibited Di-ADC
- inhibition of Tyr-DC activity (Tyr-DC; [11]): at levels similar to the level that each inhibited Di-ADC

Molecule: N=C(N)c1ccc(CS(=O)(=O)F)cc1 [APMSF]
- % Inhibition of molting of L3 larvae (D. immitis L3 larvae): 19.7% and 24.2% and 14.1%
- inhibition of the molting of L3 to L4 (in words) (D. immitis L3 larvae): unable to completely inhibit the molting

Molecule: O=C(O)c1cc[c]([Hg][Cl])cc1 [CMBA, p-chloromercuribenzoic acid]
- inhibition of Phe-DC activity (Phe-DC [2]): at levels similar to the level that each inhibited Di-ADC
- inhibition of Tyr-DC activity (Tyr-DC): at levels similar to the level that each inhibited Di-ADC

Molecule: Cc1cc(=O)oc2cc(NC(=O)[C@H](Cc3ccccc3)NC(=O)CCCC(=O)O)ccc12 [Glutaryl—Phe—AMC]
- D. immitis L3/L4 ES Activity (cleavage of substrate) (D. immitis L3/L4 ES): No

Molecule: Cc1cc(=O)oc2cc(NC(=O)[C@H](C)N)ccc12 [H—Ala—AMC]
- D. immitis L3/L4 ES Activity (cleavage of substrate) (D. immitis L3/L4 ES): No

Molecule: Cc1cc(=O)oc2cc(NC(=O)[C@@H](N)CCCN=C(N)N)ccc12 [H—Arg—AMC]
- D. immitis L3/L4 ES Activity (cleavage of substrate) (D. immitis L3/L4 ES): No

Molecule: Cc1cc(=O)oc2cc(NC(=O)[C@@H](N)CCC(=O)O)ccc12 [H—Glu—AMC]
- D. immitis L3/L4 ES Activity (cleavage of substrate) (D. immitis L3/L4 ES): No

Molecule: Cc1cc(=O)oc2cc(NC(=O)CN)ccc12 [H—Gly—AMC]
- D. immitis L3/L4 ES Activity (cleavage of substrate) (D. immitis L3/L4 ES): No

Molecule: Cc1cc(=O)oc2cc(NC(=O)[C@@H](N)Cc3cnc[nH]3)ccc12 [H—His—AMC]
- D. immitis L3/L4 ES Activity (cleavage of substrate) (D. immitis L3/L4 ES): No

Molecule: Cc1cc(=O)oc2cc(NC(=O)[C@@H](N)CC(C)C)ccc12 [H—Leu—AMC]
- D. immitis L3/L4 ES Activity (cleavage of substrate) (D. immitis L3/L4 ES): No

Molecule: Cc1cc(=O)oc2cc(NC(=O)[C@@H](N)CCCCN)ccc12 [H—Lys—AMC]
- D. immitis L3/L4 ES Activity (cleavage of substrate) (D. immitis L3/L4 ES): No

Molecule: CSCC[C@H](N)C(=O)Nc1ccc2ccccc2c1 [H—Met—NHNap]
- D. immitis L3/L4 ES Activity (cleavage of substrate) (D. immitis L3/L4 ES): No

Molecule: Cc1cc(=O)oc2cc(NC(=O)[C@@H](N)Cc3ccccc3)ccc12 [H—Phe—AMC]
- cleavage of substrate by Phe-DC [3]: cleave
- Km (Di-ADC [4]): 32.1 µM
- Vmax (Di-ADC [4]): 0.234 pmol/mg/min
- D. immitis L3/L4 ES Activity (cleavage of substrate) (D. immitis L3/L4 ES): Yes
- cleavage of substrate by Tyr-DC [5]: cleave
- Km (Phe-DC [6]): 23.1 µM
- Vmax (Phe-DC [6]): 0.619 pmol/mg/min

Molecule: Cc1cc(=O)oc2cc(NC(=O)[C@@H]3CCCN3)ccc12 [H—Pro—AMC]
- D. immitis L3/L4 ES Activity (cleavage of substrate) (D. immitis L3/L4 ES): No

Molecule: Cc1cc(=O)oc2cc(NC(=O)C(N)CO)ccc12 (stereo not shown) [H—Ser—AMC]
- D. immitis L3/L4 ES Activity (cleavage of substrate) (D. immitis L3/L4 ES): No

Molecule: Cc1cc(=O)oc2cc(NC(=O)[C@@H](N)Cc3c[nH]c4ccccc34)ccc12 [H—Trp—AMC]
- cleavage of substrate by Phe-DC [3]: cleave
- Km (Di-ADC [4]): 29.1 µM
- Vmax (Di-ADC [4]): 0.140 pmol/mg/min
- D. immitis L3/L4 ES Activity (cleavage of substrate) (D. immitis L3/L4 ES): Yes
- cleavage of substrate by Tyr-DC [5]: cleave
- Km (Phe-DC [6]): 22.9 µM
- Vmax (Phe-DC [6]): 0.703 pmol/mg/min

Molecule: Cc1cc(=O)oc2cc(NC(=O)[C@@H](N)Cc3ccc(O)cc3)ccc12 [H—Tyr—AMC]
- cleavage of substrate by Phe-DC [3]: cleave
- Km (Di-ADC [4]): 35.1 µM
- Vmax (Di-ADC [4]): 0.152 pmol/mg/min
- D. immitis L3/L4 ES Activity (cleavage of substrate) (D. immitis L3/L4 ES): Yes
- cleavage of substrate by Tyr-DC [5]: cleave
- Km (Phe-DC [6]): 72.3 µM
- Vmax (Phe-DC [6]): 0.339 pmol/mg/min

Molecule: N[C@@H](Cc1ccccc1)C(=O)O [L-phenylalanine]
- formation of CO2 (Phe-DC [7]): 0.27 mM
- formation of CO2 (Di-ADC [8]; 5 μL Di-ADC): 0.7 mM
- formation of CO2 (Di-ADC [8]; 10 μL Di-ADC): 0.38 mM
- formation of CO2 (Di-ADC [8]; 20 μl Di-ADC): 0.4 mM

Molecule: O=S(=O)(F)Cc1ccccc1 [PMSF, Phenylmethane-7-sulfonyl fluoride]
- % Inhibition of molting of L3 larvae (D. immitis L3 larvae): 32.3% and 47.3% and 29.8%
- inhibition of the molting of L3 to L4 (in words) (D. immitis L3 larvae): unable to completely inhibit the molting
- inhibition of Di-ADC activity relative to Phe-DC or Tyr-DC activity (Di-ADC [1]): more strongly
- sensitivity of the enzyme activity (H-Phe-AMC cleavage) to inhibitor (Di-ADC [1]): sensitive

Molecule: Cl.NCCc1ccc(S(=O)(=O)F)cc1 [Pefabloc]
- effect on molting (in words) (D. immitis L3 larvae): no apparent effect on molting
- effect on the molt (in words) (D. immitis L3 larvae): inhibited the molt completely
- inhibition of the molting process (in words) (D. immitis L3 larvae): completely inhibited the molting process
- sensitivity of the enzyme activity (H-Phe-AMC cleavage) to inhibitor (Di-ADC [1]): sensitive
- inhibition of Phe-DC activity (Phe-DC [2]): at levels similar to the level that each inhibited Di-ADC
- inhibition of Tyr-DC activity (Tyr-DC): at levels similar to the level that each inhibited Di-ADC

Molecule: N[C@@H](Cc1ccc(O)c(O)c1)C(=O)O [dopa, L-dopa]
- dopamine formed (Phe-DC [9]): 9.4 nmol
- dopamine formed (Di-ADC [10]): 2.74 nmol

Molecule: Ala-Ala-Phe-{AMC}
- D. immitis L3/L4 ES Activity (cleavage of substrate) (D. immitis L3/L4 ES): No

From US6586173B2, “Methods for the detection of amino acid decarboxylases” (priority 1999, dated 2003)
